Test results published in patent EP4621052A1, “IMMUNE CELL TARGETING PROBE, PRE-TARGETING RECOGNITION AND DRUG DELIVERY SYSTEM BASED ON PROBE, AND USE THEREOF” (Guangdong Keyangle Life Technology Co., Ltd., priority 2022, dated 2024).
Where no end group is shown, it is not given here.

T1: Peptide segment KL19 (KEQPDPGAVAAAAILRAIL)
T1 construct: Synthetic peptide used as ELISA coating antigen; Derived from the C-terminal fragment of Triokinase/FMN cyclase, with an added N-terminal K
T1 peptide: KEQPDPGAVAAAAILRAIL


Experiments:
[1] = test system: macrophages on the mesentery; experiment: pre-targeting delivery after intraperitoneal injection, mesentery, fluorescence microscopy; type: in vivo, Kunming mice; settings: peptide 10 µM intraperitoneal, Strep-PE intraperitoneal 3 h later, killed 1 h later; F4/80-APC counterstain
Description: (§1) The specific experimental steps are as follows: Biotinylated targeting polypeptides bio-KS24 and bio-KS29 (i.e., targeting polypeptides connected with the pre-targeting binding handles) were prepared according to the steps described in the above examples.
(§2) The targeting polypeptides (bio-KS24 and bio-KS29) connected with the pre-targeting binding handles were prepared, respectively, with a final concentration of 10 µM and a final volume of 100 µL. Then, the mixture was diluted with PBS to 4 times of the original volume (i.e., 100 µL of the mixed system was diluted to 400 µL), and then injected into Kunming mice intraperitoneally, with an injection volume of 400 µL per mouse. After the injection of the targeted polypeptide for 3 h, 5 µL Trep-PE was diluted into 100 µL of 1× PBS and intraperitoneally injected into mice. The mice were killed 1 h after the injection, and free peritoneal cells and mesentery were extracted and counterstained with F4/80-APC antibody. After incubation, the cells were washed twice with 1× PBS and observed under a fluorescence microscope.
(§3) Untreated healthy mice were used as controls.

[2] = test system: peritoneal free macrophages; experiment: pre-targeting delivery after intraperitoneal injection, free peritoneal cells, fluorescence microscopy; type: in vivo, Kunming mice; settings: peptide 10 µM intraperitoneal, Strep-PE intraperitoneal 3 h later, killed 1 h later; F4/80-APC counterstain
Description: as §1, §2, §3

[3] = test system: peripheral blood of Kunming mice; experiment: labeling of peripheral blood with targeting polypeptide with pre-targeting binding handle, flow cytometry; type: cell-based; settings: 10 µM peptide; for staining of cell populations in peripheral blood: 4°C 30 min, Strep-PE, CD19 and CD5 antibodies; for identity of the labeled B lymphocyte population: CD19 and CD5 counterstain
Source text: (2) Labeling of peripheral blood with the targeting polypeptide connected with pre-targeting binding handle: Healthy Kunming mice were taken and killed by cervical dislocation, and their peripheral blood was collected using anticoagulant blood vessels.
KS24 and KS29 were biotinylated according to the method described in (1) to obtain targeting polypeptides bio-KS24 and bio-KS29 connected with pre-targeting binding handle. The targeting polypeptides bio-KS24 and bio-KS29 each connected with the pre-targeting binding handle were added to 50 µL of peripheral blood samples, respectively, to be diluted to 100 µL with 1×PBS so that the concentration of the targeting polypeptides bio-KS24 and bio-KS29 connected with the pre-targeting binding handle in the solution was 10 µM, and the mixture was incubated at 4°C for 30 min. After the incubation, red blood cells in the peripheral blood were lysed using a conventional red blood cell lysis reagent in the art according to the instructions, washed twice with 1×PBS, resuspended with 100 µL of 1×PBS, and 1 µL/tube of phycoerythrin-labeled Strep-PE, 0.5 µL/tube of anti-mouse CD19 Antibody, and 0.5 µL/tube of FITC anti-mouse CD5 Antibody were added, and incubated at room temperature for 1 h. After the incubation, the cells were washed twice with 1× PBS and analyzed by flow cytometry.

[4] = test system: peritoneal macrophages; experiment: in vivo labeling of peritoneal macrophages by targeting polypeptide with pre-targeting binding handle; set-up: species or system Kunming mice; settings: 10 µM peptide premixed with Strep-PE, intraperitoneal injection, 4 h; F4/80-APC counterstain; flow cytometry
Description: • (1) In vivo labeling of peritoneal macrophages by targeting polypeptides connected with pre-targeting binding handles: In this example, the targeting polypeptides KS24 (amino acid sequence: […] (SEQ ID NO: 29)) and KS29 (amino acid sequence: […] (SEQ ID NO: 30)) were used. The pre-targeting binding handle was biotin. The biotinylation steps of the targeting polypeptides were as follows: the biotinylation of targeting polypeptides was carried out by adding biotinylated amino acids during peptide synthesis, so that the biotinylation sites can be controlled. Two biotinylated targeting polypeptides (bio-KS24 and bio-KS29) were respectively connected to phycoerythrin-labeled streptavidin (Strep-PE), where streptavidin served as a linker, and the phycoerythrin was connected through the specific binding of the linker to the pre-targeting binding handle (biotin-avidin system) to the targeting polypeptide for immune cell labeling and tracing. The mixtures were incubated together at room temperature for 1 h. In a 100 µL reaction system, the final concentration of the biotinylated targeting polypeptide was 10 µM, and 1 µL of Strep-PE was added. After the incubation, two groups of healthy female Kunming mice (3 mice in each group) were selected. […] After incubation, the cells were washed twice with 1× PBS and analyzed using flow cytometry. […]

[5] = target: T1, Peptide segment KL19 …; experiment: indirect ELISA, peptide as coating antigen

Molecule | pre-labeling of macrophages on the mesentery [1] | pre-labeling of free peritoneal macrophages [2] | staining of cell populations in peripheral blood [3] | identity of the labeled B lymphocyte population [3] | recognition of macrophages in peritoneal cells [4] | binding result [5]
bio-KS29: biotinylated targeting polypeptide KS29, KSSARLEQPDPGAVAAAAILRAILEVLQS (SEQ ID NO: 30) (also: biotinylated, site not given here) | could pre-label macrophages on the mesentery | could pre-label macrophages | can stain a subset of B lymphocyte population and granulocyte population | CD5^+ B lymphocytes | can selectively recognize macrophages in peritoneal cells of mice | –
bio-KS24: biotinylated targeting polypeptide KS24, KEQPDPGAVAAAAILRAILEVLQS (SEQ ID NO: 29) (also: biotinylated, site not given here) | could pre-label macrophages on the mesentery | could pre-label macrophages | can stain a subset of B lymphocyte population and granulocyte population | CD5^+ B lymphocytes | can selectively recognize macrophages in peritoneal cells of mice | –
KA-001 monoclonal antibody (antibody, mouse IgG1, kappa, V domains shown) VH: DVKIVESGGGLVKLGGSLKLSCAASGFTFSRNYMSWVRQTPEKRLELVAGINNNGGSTYYPDTVKGRFTISRDNAKNTLYLQMSSLRSEDTAIYYCAKRGFITTVGAMDYWGQGISVTVSS VL: DIQMTQTTFSLSASLGDRVTISCRASQDISNYLNWYQQIPDGTVKLLIYYTSRLHSGVPSRFSGSGSGTDYSLTISNLEQEDIATYFCQQVHTLPYTFGGGTKLEMKR | – | – | – | – | – | no binding
